No end group written: not given here.

The test system of one assay is 5XFAD mice. In words: Morris Water Maze and probe test, 5XFAD and wild-type mice. Format: in vivo, mouse. To be noted: for memory task in age-matched wild-type control mice: systemic administration, ip three times a week for 5 weeks. The method, then:
The determination of injection amount of R5 (200 µg/kg) was based on achieving equimolar concentrations as the full length peptide, cAC253[21] and prior studies that used pramlintide injections[22],[23]. The normal mouse circulated endogenous amylin level is 0.7 ± 0.4 pmol/L in plasma[32] and based upon our in vitro data (Fig. 1E) unlikely to perturb the function of peptides in vivo at these concentrations.
For in vivo studies, 5XFAD mouse breeding stocks were obtained from the Jackson Laboratory (JAX #006554). Intraperitoneal injection (ip) administration of fragment R5 and cAC253 was carried out in 5XFAD mice and wild-type littermate control mice (both male and female). These mice were equally and randomly distributed into 6 groups (n = 10 for each group), and received either normal saline (NS), cAC253 or R5 fragment (200 µg/kg) i.p. injections 3 times a week starting at 6 months of age for 5 weeks.
The Morris Water Maze (MWM) and probe test were carried out for behavioral testing. The mice were trained for 3 days (4 trials per day) to find a submerged platform (target quadrant, TQ). The trial ended when a mouse found and climbed onto the platform within 120s. Mice were tested with inter-trial interval of 50 min. Memory was evaluated in probe trial, administered on day 4 as the first trial of the day. During probe trial, the platform was removed from the pool. Memory for the platform location was expressed as the percent of time spent in TQ.
For in vivo experiments, intraperitoneal injection (ip) administration of fragment R5 and cAC253 was carried out in 6 month old transgenic 5XFAD mice and wild-type littermate control mice (both male and female) obtained from Dr. David Westaway (University of Alberta). These mice were equally and randomly distributed into 6 groups and 10 mice assigned for each group, Tg-NS, Tg-cAC253, Tg-R5, Wt-NS, Wt-cAC253, Wt-R5. Randomized double blind control experiment was carried out for the whole in vivo experiment, i.e. the individual administering ip injections was blinded to the identity of the drug, and the individual testing behavior was blind to the treatment being administered. […]
The MWM apparatus consisted of 2-m circular blue plastic pool filled with water (24–25°C), which was rendered opaque by the addition of non-toxic white paint. […] The behavior of a mouse was recorded by a video camera connected to a video tracking system (HVS Image 2100, HVS Image, Buckingham, UK).
The pool was surrounded by a white curtain, and a mouse was released facing the wall at points (N, E, S, W) which were chosen semi-randomly. […] Memory was evaluated in probe trial, administered on day 4 as the first trial of the day. […] Memory for the platform location was expressed as the percent of time spent in TQ.

Assay [1] has as its system ERK1/2 signaling pathway downstream of AMY3 receptor. The assay is described as follows: hAmylin-evoked phosphoERK1/2 in HEK-AMY3 cells. The following applies: peptides 10 μM, hAmylin 1 μM, n = 3. Format: cell-based. An excerpt: Human amylin is a potent agonist at amylin receptor stimulating cAMP production in cells. In the first in vitro bioassay, we examined ability of R5 and R14 to block the hAmylin-evoked cAMP generation in HEK-AMY3 cells. R11 peptide served as a negative control. […] In a second in vitro assay, we examined whether peptides R5, and R14 could protect human fetal neurons (HFNs) and N2a (mouse neuroblastoma cell line) from Αβ1–42 induced cytotoxicity.
A shorter peptide library was derived from AC253 peptide sequence comprising 12–14 amino acid peptides. […] To determine the activity of these shorter peptides to block AMY3 receptor signaling, cellular cAMP levels (measured using a parameter cyclic AMP assay kit, R&D Systems) and phosphorylation ERK1/2 (Western blot) were measured. We assessed neuroprotective properties of the peptide fragments against Aβ cytotoxicity in vitro using the MTT assay in N2a cell line and human fetal neurons (HFNs), which were prepared from 12- to 15-gestational week fetuses with approval of the Human Ethics Research Board at the University of Alberta as previously reported[17],[19].
Intracellular signaling profiles were determined using in-cell Western blot techniques as previously described ^8. […]

SQELHRLQTYPR-NH2 [R5]: in the assay on 5XFAD mice (200 µg/kg ip three times a week for 5 weeks from 6 months of age, n = 9 mice per group), the “Morris Water Maze escape latencies, 5XFAD mice versus normal saline” value is given as “marked improvement in escape latencies”. In the assay with 5XFAD mice (200 µg/kg ip three times a week for 5 weeks, n = 9), the “Probe trial, quadrant preference, 5XFAD mice” value was “preference for the target quadrant”. The “memory task in age-matched wild-type control mice” value in the assay with 5XFAD mice is “no alterations in the memory task”. The “effect on increases in phosphoERK1/2 evoked by hAmylin” value in assay [1] is listed as “reduce increases in phosphoERK1/2”.
For the substance “LGRLSQELHRLQTYPRTNTGSNTY-NH2 (C-terminus assumed) [AC253, reference compound]”, the “memory task in age-matched wild-type control mice” value with 5XFAD mice is “no alterations in the memory task”. For the same substance, the “effect on increases in phosphoERK1/2 evoked by hAmylin” value in assay [1] is “reduce increases in phosphoERK1/2”.

The record behind these values is PMC6662706, “Short amylin receptor antagonist peptides improve memory deficits in Alzheimer’s disease mouse model” (Scientific Reports, 2019).
